In this test the target is EBI2 (Homo sapiens, UniProt P32249). The test can be described thus: Cell-based luminescent assay (EBI2 modulation). The conditions noted are these: cell-based luminescence; 7a,25-OHC final assay concentration 80 nM; 60 minutes incubation; read-out: IC50. The procedure: Cell-Based Luminescent Assay
To assess EBI2 modulation, the compounds described herein were assayed in the following cell-based luminescent assay:
1) Plated 600 cells/well in 4 uL of assay media into columns 1-48 of a 1536-well assay plate, using a liquid dispenser.
2) Centrifuged plates at 1000 rpm for 1 minute and covered with lids.
3) Incubated overnight at 37° C., 100% relative humidity, 5% CO2.
1) Centrifuged compound plates containing compounds described herein at 500 rpm for 1 minute.
2) Added compounds into assay plate col 5-48 to final concentration 4-5 uM. Added matching amount of DMSO to positive and negative control wells in columns 1-4.
3) Dispensed 2 ul/well of assay media to columns 1-2 for the positive control wells.
4) Added 2 ul/well of 400 nM 7a,25-OHC (final assay concentration=80 nM) in assay media to columns 3-48 for the negative control and test compound wells.
5) Centrifuged plates at 1000 rpm for 1 minute and re-lid plates.
6) Incubated plates at 37° C., 100% relative humidity, 5% CO2 for 60 minutes.
7) Following 60 minute incubation, delivered 2.5 uL of Detection Reagent solution to each assay plate (Columns 1-48) using a liquid handler.
8) Centrifuged plates at 2000 rpm for 2 minutes and re-lid plates.
9) Incubated plates for 60 minutes at 25 degrees in the dark.
10) Read plates using the Viewlux, Envision or other suitable plate reader using a luminescence detection.
The experimental values were normalized by the difference between values from neutral and stimulator control wells in each plate. Then normalized data was corrected to remove systematic plate patterns due to artifacts such as dispensing tip issues etc.

EBI2, sequence (P32249 whole entry): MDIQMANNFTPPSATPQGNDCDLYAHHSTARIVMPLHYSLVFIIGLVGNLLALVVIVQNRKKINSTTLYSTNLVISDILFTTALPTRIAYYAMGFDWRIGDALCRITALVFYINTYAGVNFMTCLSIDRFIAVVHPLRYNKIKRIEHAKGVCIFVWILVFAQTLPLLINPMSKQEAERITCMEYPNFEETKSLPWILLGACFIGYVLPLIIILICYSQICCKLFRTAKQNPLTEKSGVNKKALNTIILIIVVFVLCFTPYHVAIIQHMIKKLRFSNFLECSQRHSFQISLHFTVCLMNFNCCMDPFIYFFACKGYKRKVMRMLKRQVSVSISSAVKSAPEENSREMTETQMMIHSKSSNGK

A word on the IC50: it is the concentration that gives 50% inhibition. As for “1-(4-{[4-fluoro-2-(trifluoromethyl)phenyl]carbonyl}piperazinyl)-3-[4-(trifluoromethyl)phenyl]prop-2-yn-1-one [Compound C325]”, the IC50 was under 100 nM.
To “1-(4-{[4-fluoro-2-(trifluoromethyl)phenyl]carbonyl}piperazinyl)-3-phenylprop-2-yn-1-one [Compound C321]” belongs under 100 nM; to “1-(4-{[4-fluoro-2-(trifluoromethyl)phenyl]methyl}piperazinyl)-3-(4-methylphenyl)prop-2-yn-1-one [Compound C459]”, 100 to 500 nM.
To “1-(4-{[4-fluoro-2-(trifluoromethyl)phenyl]methyl}piperazinyl)-3-[4-(trifluoromethyl)phenyl]prop-2-yn-1-one [Compound C432]” belongs 100 to 500 nM.
The result for “1-[4-(diphenylmethyl)piperazinyl]-3-(4-bromo-2-fluorophenyl)prop-2-yn-1-one [Compound C107]” reads under 100 nM.
For “1-[4-(diphenylmethyl)piperazinyl]-3-(4-bromophenyl)prop-2-yn-1-one [Compound C50]”, the IC50 was under 100 nM.
Turning to “1-[4-(diphenylmethyl)piperazinyl]-3-[2-(trifluoromethyl)phenyl]prop-2-yn-1-one [Compound C443]”, the IC50 is 100 to 500 nM.
To “1-{4-[(4-bromophenyl)carbonyl]piperazinyl}-3-(4-chlorophenyl)prop-2-yn-1-one [Compound C19]” belongs under 100 nM; to “1-{4-[(4-bromophenyl)methyl]piperazinyl}-3-(4-chlorophenyl)prop-2-yn-1-one [Compound C383]”, under 100 nM; to “1-{4-[(4-fluorophenyl)carbonyl]piperazinyl}-3-[2-(trifluoromethyl)phenyl]prop-2-yn-1-one [Compound C393]”, under 100 nM.
To “1-{4-[(4-fluorophenyl)methyl]piperazinyl}-3-[2-(trifluoromethyl)phenyl]prop-2-yn-1-one [Compound C438]” belongs 100 to 500 nM; to “1-{4-[(4-methoxyphenyl)carbonyl]piperazinyl}-3-[2-(trifluoromethyl)phenyl]prop-2-yn-1-one [Compound C373]”, under 100 nM; to “1-{4-[(4-methoxyphenyl)methyl]piperazinyl}-3-[4-(trifluoromethyl)phenyl]prop-2-yn-1-one [Compound C352]”, under 100 nM.
To “3-(2,3-dichlorophenyl)-1-[4-(diphenylmethyl)piperazinyl]prop-2-yn-1-one [Compound C25]” belongs under 100 nM; to “3-(2,3-dichlorophenyl)-1-{4-[(4-chlorophenyl)carbonyl]piperazinyl}prop-2-yn-1-one [Compound C30]”, under 100 nM; to “3-(2,3-dichlorophenyl)-1-{4-[(4-chlorophenyl)methyl]piperazinyl}prop-2-yn-1-one [Compound C275]”, under 100 nM.
With “3-(2,4-difluorophenyl)-1-{4-[(4-fluorophenyl)carbonyl]piperazinyl}prop-2-yn-1-one [Compound C424]”, the IC50 fell in the range of 100 to 500 nM.
To “3-(3,4-dichlorophenyl)-1-[4-(diphenylmethyl)piperazinyl]prop-2-yn-1-one [Compound C77]” belongs under 100 nM; to “3-(3,4-dichlorophenyl)-1-{4-[(4-chlorophenyl)carbonyl]piperazinyl}prop-2-yn-1-one [Compound C51]”, under 100 nM.
To “3-(3,4-dichlorophenyl)-1-{4-[(4-chlorophenyl)methyl]piperazinyl}prop-2-yn-1-one [Compound C291]” belongs 100 to 500 nM; to “3-(3,4-dichlorophenyl)-1-{4-[(4-fluorophenyl)carbonyl]piperazinyl}prop-2-yn-1-one [Compound C93]”, under 100 nM.
The result for “3-(3,5-difluorophenyl)-1-(4-{[4-(trifluoromethyl)phenyl]carbonyl}piperazinyl)prop-2-yn-1-one [Compound C398]” reads 100 to 500 nM.
As for “3-(3,5-difluorophenyl)-1-(4-{[4-fluoro-2-(trifluoromethyl)phenyl]methyl}piperazinyl)prop-2-yn-1-one [Compound C422]”, the IC50 lay in the range of 100 to 500 nM.
Turning to “3-(3,5-difluorophenyl)-1-[4-(diphenylmethyl)piperazinyl]prop-2-yn-1-one [Compound C419]”, the IC50 fell in the range of 100 to 500 nM.
To “3-(3,5-difluorophenyl)-1-{4-[(4-fluorophenyl)carbonyl]piperazinyl}prop-2-yn-1-one [Compound C410]” belongs 100 to 500 nM; to “3-(3,5-difluorophenyl)-1-{4-[(4-methoxyphenyl)carbonyl]piperazinyl}prop-2-yn-1-one [Compound C467]”, 100 to 500 nM; to “3-(4-bromophenyl)-1-{4-[(4-bromophenyl)methyl]piperazinyl}prop-2-yn-1-one [Compound C364]”, under 100 nM.
The result for “3-(4-bromophenyl)-1-{4-[(4-chlorophenyl)carbonyl]piperazinyl}prop-2-yn-1-one [Compound C55]” reads under 100 nM; that for “3-(4-bromophenyl)-1-{4-[(4-chlorophenyl)methyl]piperazinyl}prop-2-yn-1-one [Compound C342]”, under 100 nM; that for “3-(4-fluorophenyl)-1-{4-[(4-fluorophenyl)methyl]piperazinyl}prop-2-yn-1-one [Compound C446]”, 100 to 500 nM.
Turning to “3-(4-methylphenyl)-1-(4-{[4-(trifluoromethyl)phenyl]methyl}piperazinyl)prop-2-yn-1-one [Compound C346]”, the IC50 is under 100 nM.
As for “3-[4-(trifluoromethyl)phenyl]-1-(4-{[4-(trifluoromethyl)phenyl]methyl}piperazinyl)prop-2-yn-1-one [Compound C411]”, the IC50 is 100 to 500 nM.
The result for “4,6-dichloroindol-2-yl 4-(diphenylmethyl)piperazinyl ketone [Compound C250]” reads under 100 nM.
To “4-(diphenylmethyl)piperazinyl 1-methylindol-5-yl ketone [Compound C433]” belongs 100 to 500 nM; to “4-(diphenylmethyl)piperazinyl 2-naphthyl ketone [Compound C101]”, under 100 nM.
The result for “4-(diphenylmethyl)piperazinyl 5-bromobenzo[b]thiophen-2-yl ketone [Compound C207]” reads under 100 nM; that for “4-(diphenylmethyl)piperazinyl 5-bromoindol-2-yl ketone [Compound C43]”, under 100 nM; that for “4-(diphenylmethyl)piperazinyl 5-chlorobenzo[b]thiophen-2-yl ketone [Compound C36]”, under 100 nM.
As to “4-(diphenylmethyl)piperazinyl 5-hydroxyindol-2-yl ketone [Compound C348]”, the IC50 is under 100 nM.
The result for “4-(diphenylmethyl)piperazinyl 6-bromoindol-2-yl ketone [Compound C108]” reads under 100 nM; that for “4-(diphenylmethyl)piperazinyl 6-fluoro(3-quinolyl) ketone [Compound C227]”, under 100 nM.
The result for “4-(diphenylmethyl)piperazinyl 8-fluoro(3-quinolyl) ketone [Compound C386]” reads under 100 nM.
